In article PMC12136037, “Type II kinase inhibitors that target Parkinson’s disease–associated LRRK2” (Science Advances, 2025):

Columns and labels:
Experiment in all cases: DSF 100 kinase selectivity screen;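 also: compound tested at 20 µM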
Assay type in all cases: binding
[1] = biological target: T1, ~100 representative kinases (Homo sapiens, UniProt O14936); conditions: Protein CASK; average of three replicates
T1 construct: Recombinant protein kinase domains with a concentration of 2 μM
T1 sequence (O14936 1-926): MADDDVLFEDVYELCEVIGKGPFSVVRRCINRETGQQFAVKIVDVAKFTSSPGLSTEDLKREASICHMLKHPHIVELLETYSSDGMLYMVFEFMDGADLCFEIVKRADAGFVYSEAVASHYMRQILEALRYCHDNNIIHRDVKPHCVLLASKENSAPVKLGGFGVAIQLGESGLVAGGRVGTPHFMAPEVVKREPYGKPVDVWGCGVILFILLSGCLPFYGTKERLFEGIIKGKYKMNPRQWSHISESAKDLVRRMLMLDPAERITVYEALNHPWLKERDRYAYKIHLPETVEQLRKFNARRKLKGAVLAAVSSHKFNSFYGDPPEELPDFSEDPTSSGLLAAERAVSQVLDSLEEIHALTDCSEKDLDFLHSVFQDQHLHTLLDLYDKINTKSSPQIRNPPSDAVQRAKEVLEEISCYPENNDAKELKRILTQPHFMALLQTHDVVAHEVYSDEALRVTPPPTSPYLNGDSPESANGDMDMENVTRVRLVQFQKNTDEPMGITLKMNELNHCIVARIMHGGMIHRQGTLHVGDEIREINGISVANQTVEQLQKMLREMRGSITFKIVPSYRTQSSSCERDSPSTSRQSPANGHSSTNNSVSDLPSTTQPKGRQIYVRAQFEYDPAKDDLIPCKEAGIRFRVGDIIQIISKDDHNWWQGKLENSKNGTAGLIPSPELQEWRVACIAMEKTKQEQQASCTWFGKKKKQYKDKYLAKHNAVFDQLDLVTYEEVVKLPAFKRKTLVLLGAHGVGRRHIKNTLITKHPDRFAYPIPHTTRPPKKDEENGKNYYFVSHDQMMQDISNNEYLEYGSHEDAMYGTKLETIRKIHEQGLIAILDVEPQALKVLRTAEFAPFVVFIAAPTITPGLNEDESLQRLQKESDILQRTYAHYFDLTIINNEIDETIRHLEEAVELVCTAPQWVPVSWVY
Method in brief: (§1)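 Each kinase domain, at 2 μM, is mixed with 20 μM test compound and SYPRO Orange in Hepes (20 mM, pH 7.5) with 500 mM NaCl. Temperature is then raised at 3°C/min and fluorescence-monitored unfolding yields the melting temperature change, ΔTm in degrees Celsius.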

[2] = biological target: T2, ~100 representative kinases (Homo sapiens, UniProt O96017); conditions: Protein CHEK2; average of three replicates
T2 construct: Recombinant protein kinase domains with a concentration of 2 μM
T2 sequence (O96017 whole entry, the tested form may be a part): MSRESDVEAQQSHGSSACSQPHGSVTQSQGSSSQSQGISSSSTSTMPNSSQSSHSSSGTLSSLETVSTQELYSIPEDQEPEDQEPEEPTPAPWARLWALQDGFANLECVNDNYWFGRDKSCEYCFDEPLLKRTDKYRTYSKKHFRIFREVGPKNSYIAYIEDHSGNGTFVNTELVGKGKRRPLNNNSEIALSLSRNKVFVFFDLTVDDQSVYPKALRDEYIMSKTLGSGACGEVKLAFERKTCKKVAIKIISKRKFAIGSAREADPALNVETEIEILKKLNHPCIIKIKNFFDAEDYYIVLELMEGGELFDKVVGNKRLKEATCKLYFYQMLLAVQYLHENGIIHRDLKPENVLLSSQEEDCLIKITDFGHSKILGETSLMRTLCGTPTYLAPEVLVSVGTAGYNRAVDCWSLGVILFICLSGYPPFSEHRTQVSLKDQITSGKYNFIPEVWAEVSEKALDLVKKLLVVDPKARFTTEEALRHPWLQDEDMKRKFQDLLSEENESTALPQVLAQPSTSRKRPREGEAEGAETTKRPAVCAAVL
Method in brief: as §1

[3] = biological target: T3, ~100 representative kinases (Homo sapiens, UniProt O14976); conditions: protein GAK; average of three replicates
T3 construct: Recombinant protein kinase domains with a concentration of 2 μM
T3 sequence (O14976 1-1311): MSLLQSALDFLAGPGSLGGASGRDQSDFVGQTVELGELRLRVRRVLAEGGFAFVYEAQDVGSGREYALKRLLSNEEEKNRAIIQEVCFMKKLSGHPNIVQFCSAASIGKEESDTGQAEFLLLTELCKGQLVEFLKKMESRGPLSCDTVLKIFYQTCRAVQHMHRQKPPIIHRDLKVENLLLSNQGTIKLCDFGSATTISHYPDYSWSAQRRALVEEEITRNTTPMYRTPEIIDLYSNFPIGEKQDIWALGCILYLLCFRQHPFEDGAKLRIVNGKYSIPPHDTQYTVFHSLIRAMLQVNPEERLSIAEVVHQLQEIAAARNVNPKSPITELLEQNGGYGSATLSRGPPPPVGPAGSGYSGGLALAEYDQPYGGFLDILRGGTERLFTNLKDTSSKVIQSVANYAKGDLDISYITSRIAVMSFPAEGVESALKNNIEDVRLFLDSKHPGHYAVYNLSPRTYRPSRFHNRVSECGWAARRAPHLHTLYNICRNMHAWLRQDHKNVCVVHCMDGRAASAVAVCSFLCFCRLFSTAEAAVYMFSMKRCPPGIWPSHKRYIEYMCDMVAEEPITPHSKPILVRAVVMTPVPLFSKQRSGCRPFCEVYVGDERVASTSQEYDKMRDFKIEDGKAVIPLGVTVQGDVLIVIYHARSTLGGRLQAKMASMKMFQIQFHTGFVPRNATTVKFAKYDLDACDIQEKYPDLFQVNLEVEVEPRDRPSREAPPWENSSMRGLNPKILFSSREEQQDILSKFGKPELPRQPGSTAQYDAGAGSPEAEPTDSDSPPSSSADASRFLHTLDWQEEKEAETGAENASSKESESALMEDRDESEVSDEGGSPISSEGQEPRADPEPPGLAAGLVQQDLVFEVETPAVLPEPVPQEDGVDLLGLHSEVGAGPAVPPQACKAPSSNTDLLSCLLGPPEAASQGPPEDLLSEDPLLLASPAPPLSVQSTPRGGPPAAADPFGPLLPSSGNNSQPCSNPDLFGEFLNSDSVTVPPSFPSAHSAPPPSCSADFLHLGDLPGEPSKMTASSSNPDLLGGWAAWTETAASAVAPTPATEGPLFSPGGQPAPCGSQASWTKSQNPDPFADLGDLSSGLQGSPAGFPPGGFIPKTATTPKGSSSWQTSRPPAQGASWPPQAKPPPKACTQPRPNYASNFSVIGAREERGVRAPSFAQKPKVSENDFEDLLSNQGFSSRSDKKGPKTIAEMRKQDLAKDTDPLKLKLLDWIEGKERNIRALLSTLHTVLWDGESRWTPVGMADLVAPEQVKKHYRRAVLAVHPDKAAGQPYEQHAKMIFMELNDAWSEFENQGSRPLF
Method in brief: as §1

Compound | dTm [1] | dTm [2] | dTm [3]
Cc1ccc(C(=O)Nc2ccc(CN3CCN(C)CC3)c(C(F)(F)F)c2)cc1C#Cc1cnc2[nH]ncc2c1 [GZD-824, reference compound] | -2.40 K | 5.84 K | 11.23 K
C[C@@H]1CN(c2cc(-c3n[nH]c4ccc(OC5(C)CC5)cc34)ncn2)C[C@H](C)O1 [MLi2] | 0.19 K | 3.06 K | 0.31 K
Cn1cc(-c2c[nH]c3ncnc(N4CCOCC4)c23)cc1C#N [PFE-360] | 0.12 K | 3.22 K | -0.50 K
CNC(=O)c1cc(Oc2ccc(NC(=O)Nc3cc(C(C)(C)C)nn3-c3ccc4ncccc4c3)c(F)c2)ccn1 [Rebastinib, reference compound] | -12.03 K | 10.49 K | 4.99 K
